According to US20250255976A1, “CATIONIC BIOMATERIALS AMELIORATE OBESITY-ASSOCIATED CHRONIC INFLAMMATION AND FOCAL ADIPOSITY” (THE TRUSTEES OF COLUMBIA UNIVERSITY IN THE CITY OF NEW YORK, priority 2022, published 2025):

Target: T1, TLR3 (Homo sapiens, UniProt O15455)
T1 construct: host or cells: HEK-Blue (HEK293) TLR3 reporter cells
T1 sequence (O15455 24-904): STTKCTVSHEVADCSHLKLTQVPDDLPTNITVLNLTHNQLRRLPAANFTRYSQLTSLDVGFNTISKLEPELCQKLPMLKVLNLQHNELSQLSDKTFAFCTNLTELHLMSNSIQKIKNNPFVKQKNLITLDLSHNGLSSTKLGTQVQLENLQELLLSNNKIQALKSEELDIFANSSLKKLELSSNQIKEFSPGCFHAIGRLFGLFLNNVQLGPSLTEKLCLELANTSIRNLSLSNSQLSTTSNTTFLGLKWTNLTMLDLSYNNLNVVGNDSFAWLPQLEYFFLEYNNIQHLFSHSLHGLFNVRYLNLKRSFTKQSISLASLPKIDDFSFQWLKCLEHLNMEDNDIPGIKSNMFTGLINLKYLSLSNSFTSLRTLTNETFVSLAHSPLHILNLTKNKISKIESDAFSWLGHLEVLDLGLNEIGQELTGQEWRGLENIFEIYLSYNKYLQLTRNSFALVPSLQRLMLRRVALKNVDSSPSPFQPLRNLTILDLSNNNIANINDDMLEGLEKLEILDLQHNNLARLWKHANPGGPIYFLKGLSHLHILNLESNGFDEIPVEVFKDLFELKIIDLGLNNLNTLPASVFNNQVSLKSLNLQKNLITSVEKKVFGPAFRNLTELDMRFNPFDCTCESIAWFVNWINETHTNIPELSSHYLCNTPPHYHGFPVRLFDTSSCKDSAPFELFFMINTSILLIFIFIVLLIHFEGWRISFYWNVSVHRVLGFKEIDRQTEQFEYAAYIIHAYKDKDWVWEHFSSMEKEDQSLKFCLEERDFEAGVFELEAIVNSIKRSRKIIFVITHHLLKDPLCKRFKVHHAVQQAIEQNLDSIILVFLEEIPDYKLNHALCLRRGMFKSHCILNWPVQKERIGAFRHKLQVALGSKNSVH
Experiment: HEK-Blue TLR3 reporter cell SEAP assay, stimulated with murine plasma or liver total RNA
Type: cell-based
Details: plasma from DIO mice; inhibitor added 30 min before stimulus, or plasma digested with RNase I; FIG. 2F
Description: Stable TLR3-, 4-, 8-, and 9-overexpressing HEK-Blue and TLR3 knockout (KO) HEK-Dual Null cells (Invivogen) were propagated in high-glucose Dulbecco's modified Eagle's medium (DMEM) with 10% (v/v) fetal bovine serum (FBS, Corning) and maintained in growth medium supplemented with selective antibiotics following the manufacturer's instructions. RAW264.7 cells (ATCC) were cultured in high-glucose DMEM with 10% (v/v) FBS and then were subcultured by detachment with a cell scraper. C3H10T1/2 cells (ATCC) were cultured in high-glucose DMEM with 10% (v/v) FBS and 1× penicillin/streptomycin (Thermo Fisher). 3T3-L1 cells (ATCC) were cultivated in high-glucose DMEM with 10% (v/v) calf serum and 1× penicillin/streptomycin to maintain the undifferentiated status. At two days post-confluence, 3T3-L1 preadipocytes were induced to differentiate into adipocytes using an adipogenic cocktail containing 10 μg/mL insulin, 1 μM dexamethasone, and 0.5 mM 3-isobutyl-1-methylxanthine in 10% FBS DMEM. Two days post-induction, the cell medium was switched to the maintenance medium of 10% FBS DMEM supplemented with 2.5 μg/mL insulin.
HEK-Blue TLR3 cells (5×10^4 cells/well) were seeded and cultured overnight in 96-well plates in DMEM and then stimulated with murine plasma or liver total RNA. After 48 h, the activation of reporter cells was determined with a Quanti-blue medium (Invivogen). […]

activation of TLR3 by obese plasma	Compound
blocked	O=C(N[C@H](Cc1ccccc1)C(=O)O)c1sc2cc(F)ccc2c1Cl [TLR3 inhibitor]
blocked	ribonuclease I [RNase I]
